Reference: ChEMBL document CHEMBL3769371, “1-[(2E)-3-Phenylprop-2-enoyl]-1H-benzimidazoles as anticancer agents: synthesis, crystal structure analysis and binding studies of the most potent anticancer molecule with serum albumin” (Medchemcomm, 2015)

What was measured:
K562 = test: Cytotoxicity against human K562 cells assessed as cell growth at 10^-5 M after 48 hrs by SRB assay; assay type: functional; conditions: K562, 48 h, read-out: Activity
KM12 [1] = test: Cytotoxicity against human KM12 cells assessed as cell growth at 10^-5 M after 48 hrs by SRB assay; assay type: functional; conditions: KM12, 48 h, read-out: Activity
U-251 = test: Cytotoxicity against human U251 cells assessed as cell growth at 10^-5 M after 48 hrs by SRB assay; assay type: functional; conditions: U-251, 48 h, read-out: Activity
M14 = test: Cytotoxicity against human M14 cells assessed as cell growth at 10^-5 M after 48 hrs by SRB assay; assay type: functional; conditions: M14, 48 h, read-out: Activity
SK-MEL-5 [2] = test: Cytotoxicity against human SK-MEL-5 cells assessed as cell growth at 10^-5 M after 48 hrs by SRB assay; assay type: functional; conditions: SK-MEL-5, 48 h, read-out: Activity
[3] = Cytotoxicity against human OVCAR4 cells assessed as cell growth at 10^-5 M after 48 hrs by SRB assay; assay type: functional; conditions: OVCAR-4, 48 h, read-out: Activity
MDA-MB-231 = test: Cytotoxicity against human MDA-MB-231 cells assessed as cell growth at 10^-5 M after 48 hrs by SRB assay; assay type: functional; conditions: MDA-MB-231, 48 h, read-out: Activity
[4] = Cytotoxicity against human HOP92 cells after 48 hrs by SRB assay; assay type: functional; conditions: HOP-92, 48 h
NCI-H226 = test: Cytotoxicity against human NCI-H226 cells after 48 hrs by SRB assay; assay type: functional; conditions: NCI-H226, 48 h
NCI-H23 = test: Cytotoxicity against human NCI-H23 cells after 48 hrs by SRB assay; assay type: functional; conditions: NCI-H23, 48 h
NCI-H322M = test: Cytotoxicity against human NCI-H322M cells after 48 hrs by SRB assay; assay type: functional
KM12 [5] = test: Cytotoxicity against human KM12 cells after 48 hrs by SRB assay; assay type: functional; conditions: KM12, 48 h
Malme-3M = test: Cytotoxicity against human MALME-3M cells after 48 hrs by SRB assay; assay type: functional
SK-MEL-28 = test: Cytotoxicity against human SK-MEL-28 cells after 48 hrs by SRB assay; assay type: functional; conditions: SK-MEL-28, 48 h
SK-MEL-5 [6] = test: Cytotoxicity against human SK-MEL-5 cells after 48 hrs by SRB assay; assay type: functional; conditions: SK-MEL-5, 48 h
[7] = Cytotoxicity against human UACC257 cells after 48 hrs by SRB assay; assay type: functional; conditions: UACC-257, 48 h
[8] = Cytotoxicity against human OVCAR8 cells after 48 hrs by SRB assay; assay type: functional; conditions: OVCAR-8, 48 h
A498 = test: Cytotoxicity against human A498 cells after 48 hrs by SRB assay; assay type: functional; conditions: A498, 48 h
[9] = Cytotoxicity against human RXF393 cells after 48 hrs by SRB assay; assay type: functional; conditions: RXF 393, 48 h
SN12C = test: Cytotoxicity against human SN12C cells after 48 hrs by SRB assay; assay type: functional
[10] = Cytotoxicity against human UO31 cells after 48 hrs by SRB assay; assay type: functional; conditions: UO-31, 48 h
MCF7 = test: Cytotoxicity against human MCF7 cells after 48 hrs by SRB assay; assay type: functional; conditions: MCF7, 48 h
[11] = Cytotoxicity against human Hs 578T cells after 48 hrs by SRB assay; assay type: functional
T47D = test: Cytotoxicity against human T47D cells after 48 hrs by SRB assay; assay type: functional
Albumin [12] = target: T1, Albumin (Homo sapiens, UniProt P02768); test: Binding affinity to human serum albumin at 0.25 to 2 uM at 308 K by fluorescence microscopic analysis; assay type: ADME; conditions: isolated protein
T1 sequence (P02768 whole entry): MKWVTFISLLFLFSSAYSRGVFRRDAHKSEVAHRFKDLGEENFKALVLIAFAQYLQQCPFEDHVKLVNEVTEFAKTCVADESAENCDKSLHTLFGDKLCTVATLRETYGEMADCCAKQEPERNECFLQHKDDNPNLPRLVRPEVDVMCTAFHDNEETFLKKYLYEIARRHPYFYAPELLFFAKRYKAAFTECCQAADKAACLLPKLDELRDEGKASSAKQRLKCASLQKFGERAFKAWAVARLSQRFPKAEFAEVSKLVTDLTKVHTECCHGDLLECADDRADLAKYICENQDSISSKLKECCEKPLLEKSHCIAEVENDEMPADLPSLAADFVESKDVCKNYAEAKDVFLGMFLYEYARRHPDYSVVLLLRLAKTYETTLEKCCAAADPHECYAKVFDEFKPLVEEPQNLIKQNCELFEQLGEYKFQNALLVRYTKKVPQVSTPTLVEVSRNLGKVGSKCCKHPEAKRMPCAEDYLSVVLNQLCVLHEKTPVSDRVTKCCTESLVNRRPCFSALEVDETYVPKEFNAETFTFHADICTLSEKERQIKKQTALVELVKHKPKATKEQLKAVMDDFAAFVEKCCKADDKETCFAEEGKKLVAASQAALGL

Albumin [13] = target: T1, Albumin; test: Binding affinity to human serum albumin at 0.25 uM at 303 K by fluorescence microscopic analysis in the presence of Co2+; assay type: ADME; conditions: isolated protein
Albumin [14] = target: T1, Albumin; test: Binding affinity to human serum albumin at 0.25 uM at 303 K by fluorescence microscopic analysis in the presence of K+; assay type: ADME; conditions: isolated protein
Albumin [15] = target: T1, Albumin; test: Binding affinity to human serum albumin at 0.25 uM at 303 K by fluorescence microscopic analysis in the presence of Mn2+; assay type: ADME; conditions: isolated protein
[16] = Antiproliferative activity against human DU145 cells at 10'5 M; assay type: functional, DU-145
[17] = read-out: LC50 (the source's name)

## O=C(/C=C/c1ccccc1)n1c(-c2ccc(Cl)cc2)nc2ccccc21
K562
  growth at 10 µM: 39.8%
KM12 [1]
  growth at 10 µM: -62.9%
U-251
  growth at 10 µM: -0.39%
M14
  growth at 10 µM: -37.3%
SK-MEL-5 [2]
  growth at 10 µM: -70.6%
[3]
  growth at 10 µM: 30%
MDA-MB-231
  growth at 10 µM: -26.5%
[4]
  GI50: 2.72 µM
  TGI: 5.17 µM
[4]; [17]
  CC50: 9.81 µM
NCI-H226
  GI50: 1.46 µM
  TGI: 3.82 µM
NCI-H226; [17]
  CC50: 10 µM
NCI-H23
  GI50: 2.17 µM
  TGI: 6 µM
NCI-H23; [17]
  CC50: > 100 µM
NCI-H322M
  GI50: 1.91 µM
  TGI: 4.89 µM
NCI-H322M; [17]
  CC50: 20 µM
KM12 [5]
  GI50: 1.51 µM
  TGI: 3.71 µM
KM12 [5]; [17]
  CC50: 9.16 µM
Malme-3M
  GI50: 0.59 µM
  TGI: 1.91 µM
Malme-3M; [17]
  CC50: 4.77 µM
SK-MEL-28
  GI50: 2.1 µM
  TGI: 4.35 µM
SK-MEL-28; [17]
  CC50: 9.02 µM
SK-MEL-5 [6]
  GI50: 1.49 µM
  TGI: 3.22 µM
SK-MEL-5 [6]; [17]
  CC50: 6.92 µM
[7]
  GI50: 1.64 µM
  TGI: 3.12 µM
[7]; [17]
  CC50: 5.93 µM
[8]
  GI50: 1.74 µM
  TGI: 4.21 µM
[8]; [17]
  CC50: 10.5 µM
A498
  GI50: 2.05 µM
  TGI: 7.63 µM
A498; [17]
  CC50: 28.4 µM
[9]
  GI50: 1.32 µM
  TGI: 3.12 µM
[9]; [17]
  CC50: 7.37 µM
SN12C
  GI50: 1.39 µM
  TGI: 2.76 µM
SN12C; [17]
  CC50: 5.46 µM
[10]
  GI50: 1.1 µM
  TGI: 3.55 µM
[10]; [17]
  CC50: 12.9 µM
MCF7
  GI50: 1.01 µM
  TGI: 9.92 µM
MCF7; [17]
  CC50: 55.5 µM
[11]
  GI50: 2.57 µM
  TGI: 17.9 µM
[11]; [17]
  CC50: > 100 µM
T47D
  GI50: 1.73 µM
  TGI: 7.68 µM
T47D; [17]
  CC50: 57.5 µM
Albumin [12]
  K: 6.27 ×10³ /mol
Albumin [13]
  K: 4.09 ×10³ /mol
Albumin [14]
  K: 4.21 ×10³ /mol
Albumin [15]
  K: 3.85 ×10³ /mol
[16]
  growth inhibition (GI): 88.87%
